Measurements published in US8299096B2, “Method for treating pulmonary diseases using rho kinase inhibitor compounds” (priority 2008, dated 2012).

Columns and labels:
[1] = Compound plasma concentrations in mice at 15 min post administration; type: in vivo, mouse; settings: for concentration at 15 min: mouse, mice, plasma, 15 min post administration (oral dosing), mean of n = 3 mice, read-out: Plasma Mean Concentration
Experimental: Additionally, compound concentrations were determined in the plasma and lungs of male, ovalbumin-sensitized, Balb/c mice from a murine model of asthma. Test compounds were formulated in water or 1% polysorbate 80 and dosed at 15 μmol/kg for intraperitoneal (IP) or oral (PO) administration or formulated for intratracheal (IT) administration and dosed at 5 μmol/kg, which directly targets the lungs. Following completion of the in vivo study, mice were euthanized and blood and plasma collected approximately 2.5-3 hours post administration of test compound for bronchodialator (BD) studies and 24 hours post administration for anti-inflamatory (AI) studies. Lungs were homogenized in Matrix A lysing tubes using a FastPrep 24 tissue and cell homogenizer (MP Biomedicals, Solon, Ohio). Both plasma samples and lung extracts were assayed for compound concentrations using an on-line, solid phase extraction LC/MS/MS system.

[2] = test system: ovalbumin-sensitized mice; test: Prevention of airway hyperreactivity development, anti-inflammatory dosing paradigm (Penh); type: in vivo, mouse
rat tracheal rings = test: Tracheal relaxation assay, carbachol precontracted rings
Experimental: Trachea were excised, cleaned of connective tissue and cut into cylindrical segments of 2-3 mm length. Two stainless steel wires were guided through the lumen of the tracheal ring. One wire was fixed in the tissue bath and the other was connected to a force transducer via surgical silk. […] Indomethacin (1 μM), a cyclooxygenase inhibitor, was added to the Krebs buffer and was present throughout the experiments. Contractile tensions were measured using an isometric force transducer (Grass Instruments) and signals were analyzed using specialized software (Chart v5.5, ADInstruments). The preparations were allowed to equilibrate at a resting tension of 0.3 to 0.5 gm prior to two challenges with 60 mM KCl to assess tissue viability. After washing, tissues were treated with 1 μM carbachol for 10 to 15 minutes to induce a contractile response. Test Compounds were added cumulatively to the bath every 30 minutes and reductions in tension were recorded. Basal tension was subtracted from all values and data were reported as a percentage of the maximal carbachol-induced contraction. Data were fit to the Hill equation using GraphPad Prism v5 software.

[3] = test system: ovalbumin-sensitized mice; test: Bronchodilator assay in ovalbumin-sensitized mouse model of asthma (Penh); type: in vivo; settings: oral doses
Experimental: Male BALB/c mice were ordered from Charles River Laboratories (Raleigh, N.C.). The animals were approximately 19 to 21 grams at time of receipt. Upon arrival, the animals were randomized into groups of five males per cage and assigned to a dosing group. Animals were quarantined for 7 days under test conditions. They were observed daily for general health status and ability to adapt to the water bottles.
Animals were sensitized on day 0 and 14 of study by an intraperitoneal injection with 20 μg of ovalbumin (ova) and 2.0 mg aluminum hydroxide (alum) which initiates the development of a specific T-helper (Th) cells type 2 resulting in asthmatic animals. One group of animals received an injection of saline to use as non-asthmatic control animals. All animals were challenged with aerosolized 1% ova once daily for 25 minutes on days 28, 29, and 30 (Zosky, et al. Respiratory Research, 2004; 5:15). Aerosol challenge consists of using an Aerogen Aeroneb nebulizer and controller with a particle size of 4-6 μm mass median aerodynamic diameter (MMAD) with a distribution of 400 μl per minute. This aerosol challenge is necessary to target the Th2-driven allergic inflammation in the lower airways.
The test compounds and the control vehicle were administered to animals on the day of airway hyperreactivity evaluation 30 minutes to 1 hour before the evaluation to determine the bronchodilator effects of the compounds according to the bronchodilator dosing paradigm (FIG. 3A). Compounds were administered p.o. (orally), i.p. (intraperitoneally) at 15 μMol/kg unless otherwise noted (Table 4). Alternatively, compounds were administered i.t. (intratracheally) at varying doses as shown (FIG. 3B). On day 32 of the experiment, airway hyperreactivity was evaluated by placing conscious, unrestrained animals in a whole body plethysmometer (Buxco Wilmington, N.C.) and exposing them to escalating doses of nebulized methacholine, a known bronchial constrictor which acts through the muscarinic receptors of the lungs, (doses: […]-50 mg/ml). Exposure to the methacholine doses consisted of a 3 minute period during which a nebulizer was aerosolizing the methacholine and an additional 3 minute period following the cessation of nebulization. Over this 6 minute period, the plethysmometer monitors and generates numerical values for all parameters of the breath pattern. Enhanced pause (Penh), a unitless index of airway hyperreactivity, is derived from the expiratory side of the respiratory waveform measured via the plethysmograph and is used as an indirect measure of airway resistance and hyperreactivity. […] Following the methacholine dose response, all animals were anesthetized, bled and euthanized.
Within each experiment, a mouse was given a single compound and exposed to increasing doses of methacholine [0 (baseline), 0.375, 0.75, 1.5, 3, 6, 12, 25, 50 mg/ml]. The Penh value at each of the dose levels of methacholine represents the 6-minute average response. Change from baseline (CFB) in Penh was calculated at each methacholine dose and the area under the curve (AUC) for these CFB values was calculated using the trapezoidal rule. This same approach was applied for each mouse across multiple experiments.
For statistical analyses, a linear mixed-effects model where the response was the log 10 transformed value of AUC described above was used. Data from equal experimental conditions across experiments performed on different days were pooled for statistical analysis and data reporting. The various compounds were compared adjusting for the log 10-transformed baseline value of Penh and the chamber (1 of 10) of the plethysmometer each mouse was contained in during an experiment. A random intercept for each experiment was assumed to account for possible similarities of the results obtained from a given experiment (i.e., as a “blocking effect”).
For Table 4 and Table 5, Penh values are reported as log 10 transformed AUC values. […]

[4] = test system: ovalbumin-sensitized mice; test: Anti-inflammatory assay in ovalbumin-sensitized mouse model of asthma (BALF cells and cytokines); type: in vivo; settings: dosed orally to day 31, anti-inflammatory dosing paradigm
Description: Mouse model of asthma via ovalbumin sensitization was created as described in Example 5. The anti-inflammatory dosing paradigm (FIG. 4) was utilized to evaluate the anti-inflammatory effects of experimental compounds. The anti-inflammatory dosing paradigm consists of dosing the animals once a day starting on day 27 and finishing on either day 30 or 31 (1 hr prior to the aerosolized ovalbumin challenges on days 28 to 30) but not on day 32 when hyper-reactivity evaluation occurs.
Bronchoalveolar lavage fluid (BALF) was collected by infusing 3.0 ml of saline with 10% fetal calf serum into the lungs via the trachea and then withdrawing the fluid. The total amount of cells/ml of BALF fluid was determined via manual cell count on hemocytometer. The BALF was centrifuged, supernatant removed and analyzed for cytokine concentrations as described below, and cell pellet reconstituted in 500 μL of fluid. Cytospin slides were prepared from the cell pellet using 100 μL of fluid and spinning samples for 5 minutes at 5000 rpms in a cytospin centrifuge. Following Hema3 stain, relative percentages of individual leukocytes were determined on a 200 cell count for each sample. The final concentration of individual leukocyte cell types per ml of BALF was determined by multiplication of the relative percentage of individual leukocytes with the total amount of cells/ml of BALF fluid.
The concentrations of cytokines in the BALF samples were determined using commercially available Bio-plex kits (Bio-Rad) for the detection of mouse IL-5, IL-13, and Eotaxin. The analysis of cytokine levels was measured using the Bio-Plex 200 (Bio-Rad) system according to the manufacturer's instructions.

Compound	concentration at 15 min [1]	other results
Brc1cccc(CN2CCC[C@H](Nc3ccc4[nH]ncc4c3)C2)c1 [Compound 1.183]	708 nM	
c1cc(N[C@@H]2CCN(Cc3ccc4c(c3)OCCO4)C2)c2ccncc2c1 [Compound 2.056]	1260 nM	
C=Cc1ccc(CN2CCC[C@@H](Nc3ccc4[nH]ncc4c3)C2)cc1 [Compound 1.208]	281 nM	
c1cc2c(cc1CN1CCC[C@@H](Nc3ccc4[nH]ncc4c3)C1)CCO2 [Compound 1.246]	587 nM	
Cc1cccc(CN2CCC[C@@H](Nc3ccc4[nH]ncc4c3)C2)c1C [Compound 1.172]	111 nM	
O=C(COc1cccc(CN2CCC[C@@H](Nc3ccc4[nH]ncc4c3)C2)c1)N1CCOCC1 [Compound 1.127]	980 nM	
Cc1ccc(CN2CCC[C@H](Nc3ccc4[nH]ncc4c3)C2)c(C)c1 [Compound 1.155]	32.4 nM	
COc1ccc(CN2CCC[C@H](Nc3ccc4[nH]ncc4c3)C2)cc1NS(C)(=O)=O [Compound 1.234]	240 nM	
OCc1ccc(CN2CCC[C@H](Nc3ccc4[nH]ncc4c3)C2)cc1 [Compound 1.223]	12.8 nM	
COc1ccc(CN2CC[C@@H](Nc3ccc4[nH]ncc4c3)C2)cc1 [Compound 1.245]	1520 nM	
CC(C)c1ccc(CN2CCC[C@@H](Nc3ccc4[nH]ncc4c3)C2)cc1 [Compound 1.204]	549 nM	
c1cc2c(cc1CN1CCC[C@@H](Nc3ccc4[nH]ncc4c3)C1)OCCO2 [Compound 1.177]	283 nM	
Oc1cccc(CN2CCC[C@@H](Nc3ccc4[nH]ncc4c3)C2)c1 [Compound 1.145]	109 nM	
CCOc1cccc(CN2CCC[C@@H](Nc3ccc4[nH]ncc4c3)C2)c1 [Compound 1.203]	1130 nM	
NC(=O)Cn1ccc2ccc(CN3CCC[C@H](Nc4ccc5[nH]ncc5c4)C3)cc21 [Compound 1.107]	211 nM	
c1cc2cc(CN3CCC[C@@H](Nc4ccc5[nH]ncc5c4)C3)ccc2[nH]1 [Compound 1.143]	274 nM	
COc1ccc(CN2CCC[C@@H](Nc3ccc4[nH]ncc4c3)C2)cc1 [Compound 1.226]	526 nM	
Clc1cccc(CN2CCC[C@H](Nc3ccc4[nH]ncc4c3)C2)c1 [Compound 1.170]	639 nM	
CSc1cccc(CN2CCC[C@@H](Nc3ccc4[nH]ncc4c3)C2)c1 [Compound 1.159]	250 nM	
CC(C)(C)NCC(O)c1ccc(O)c(CO)c1 (stereo not shown) [Salbutamol, reference compound]		Efficacy using the anti-inflammatory dosing paradigm ([2]; anti-inflammatory dosing paradigm): ineffective
Clc1ccc(CN2CC[C@@H](Nc3cccc4cnccc34)C2)cc1 [Compound 2.027]	503 nM	
CS(=O)(=O)c1cccc(CN2CCC[C@H](Nc3ccc4[nH]ncc4c3)C2)c1 [Compound 1.182]	452 nM	
CC(=O)NCc1cccc(CN2CCC[C@@H](Nc3ccc4[nH]ncc4c3)C2)c1 [Compound 1.194]	355 nM	
Cc1ccc(CN2CCC[C@H](Nc3ccc4[nH]ncc4c3)C2)cc1O [Compound 1.151]	479 nM	

Compound	concentration at 15 min [1]	other results
NC(=O)Cn1ccc2ccc(CN3CCC[C@@H](Nc4ccc5[nH]ncc5c4)C3)cc21 [Compound 1.106]	441 nM	
Brc1ccc(CN2CCC[C@H](Nc3ccc4[nH]ncc4c3)C2)cc1 [Compound 1.142]	330 nM	
CN(c1cccc(CN2CCC[C@H](Nc3ccc4[nH]ncc4c3)C2)c1)S(C)(=O)=O [Compound 1.198]	643 nM	
c1ccc(CN2CCC[C@H](Nc3ccc4[nH]ncc4c3)C2)cc1 [Compound 1.227]	1860 nM	
Brc1cccc(CN2CCC[C@@H](Nc3ccc4[nH]ncc4c3)C2)c1 [Compound 1.210]	286 nM	
CC(=O)NCc1cccc(CN2CC[C@@H](Nc3cccc4cnccc34)C2)c1 [Compound 2.063]	348 nM	
Cc1ccc(CN2CC[C@@H](Nc3ccc4[nH]ncc4c3)C2)cc1 [Compound 1.242]	580 nM	
c1cc(C2CC2)ccc1CN1CCC[C@H](Nc2ccc3[nH]ncc3c2)C1 [Compound 1.185]	1020 nM	
O=S(=O)(c1cccc2cnccc12)N1CCCNCC1 [fasudil]		Percentage of carbachol-induced contraction at 10 μM compound, Avg % (rat tracheal rings; 10 μM compound, 1 μM carbachol precontracted rat trachea rings): least efficacious; IC50, tracheal ring relaxation (rat tracheal rings; carbachol precontracted tissue): could not be obtained
c1cc2cc(CN3CCC[C@@H](Nc4ccc5[nH]ncc5c4)C3)ccc2o1 [Compound 1.131]		Reduction in airway hyperresponsivness [3]: statistically significant reduction; Detection in mouse plasma 15 minutes after oral dosing ([1]; mouse plasma, 15 minutes, oral): readily detectable; Prevention of airway hyperreactivity to metacholine on Day 32 ([2]; oral, 15 μMol/kg once a day during days 27 to 31): prevention of airway hyperreactivity; Airway eosinophil infiltration (eosinophils per ml of BALF) [4]: reduced
OCCOc1cccc(CN2CCC[C@H](Nc3ccc4[nH]ncc4c3)C2)c1 [Compound 1.090]	5.9 nM	
C=Cc1ccc(CN2CCC[C@H](Nc3ccc4[nH]ncc4c3)C2)cc1 [Compound 1.229]	1450 nM	
OCCOc1cccc(CN2CCC[C@@H](Nc3cccc4cnccc34)C2)c1 [Compound 2.034]	665 nM	
Cc1ccc(CN2CCC[C@H](Nc3ccc4[nH]ncc4c3)C2)cc1 [Compound 1.078]	1020 nM	
c1ccc(CN2CCC[C@@H](Nc3ccc4[nH]ncc4c3)C2)cc1 [Compound 1.110]	792 nM	
CCSc1ccc(CN2CCC[C@H](Nc3ccc4[nH]ncc4c3)C2)cc1 [Compound 1.168]	588 nM	
OCCOc1cccc(CN2CCC[C@@H](Nc3ccc4[nH]ncc4c3)C2)c1 [Compound 1.092]	314 nM	
O=C(COc1cccc(CN2CC[C@@H](Nc3cccc4cnccc34)C2)c1)N1CCOCC1 [Compound 2.043]	60.8 nM	
Clc1cccc(CN2CCC[C@@H](Nc3ccc4[nH]ncc4c3)C2)c1 [Compound 1.191]	260 nM	
Fc1ccc(CN2CCC[C@@H](Nc3ccc4[nH]ncc4c3)C2)cc1 [Compound 1.146]	1260 nM	
c1cc(CN2CCC[C@@H](Nc3ccc4[nH]ncc4c3)C2)cc(C2CC2)c1 [Compound 1.202]	130 nM	
Fc1ccc(CN2CC[C@@H](Nc3cccc4cnccc34)C2)cc1F [Compound 2.062]	660 nM	
OCCOc1cccc(CN2CCC[C@H](Nc3cccc4cnccc34)C2)c1 [Compound 2.036]	1340 nM	
Fc1ccc(CN2CCC[C@H](Nc3ccc4[nH]ncc4c3)C2)cc1F [Compound 1.072]	1770 nM	
